Measured values published in patent US20260001928A1 (CORTERIA PHARMACEUTICALS, priority 2022, published 2026).
*1 amine or outer side, *2 acyl side, *3 side chain or, on linkers, in order; H or OH if unused. Where a SMILES comes first, the peptide text is derived from it. Side-chain parts run from the residue outwards. [ ]: non-standard residue; d: D form. The star is where a group is joined. C18 diacid = O=C(O)CCCCCCCCCCCCCCCCC(=O)*; γGlu = O=C(O)[C@H](CCC(=O)[*:2])N[*:1]; NMeI = CC[C@H](C)[C@H](NC)C(=O)O; Api = NC1(C(=O)O)CCNCC1; Pentanoyl = CCCCC(=O)*; AEEA = NCCOCCOCC(=O)O; Aib = CC(C)(N)C(=O)O

Key:
human CRF2a receptor = target: T1, human CRF2a receptor (Homo sapiens, UniProt Q13324); test: Activity at human CRF2a receptor, cAMP functional assay in TeloHEAC cells; type: cell-based; settings: TeloHEAC cells stably expressing human CRF2a receptor, relative to urocortin 2 (100 nM = 100%)
T1 construct: expressed in transfected cells; host or cells: TeloHEAC cells
T1 sequence (Q13324 1-411): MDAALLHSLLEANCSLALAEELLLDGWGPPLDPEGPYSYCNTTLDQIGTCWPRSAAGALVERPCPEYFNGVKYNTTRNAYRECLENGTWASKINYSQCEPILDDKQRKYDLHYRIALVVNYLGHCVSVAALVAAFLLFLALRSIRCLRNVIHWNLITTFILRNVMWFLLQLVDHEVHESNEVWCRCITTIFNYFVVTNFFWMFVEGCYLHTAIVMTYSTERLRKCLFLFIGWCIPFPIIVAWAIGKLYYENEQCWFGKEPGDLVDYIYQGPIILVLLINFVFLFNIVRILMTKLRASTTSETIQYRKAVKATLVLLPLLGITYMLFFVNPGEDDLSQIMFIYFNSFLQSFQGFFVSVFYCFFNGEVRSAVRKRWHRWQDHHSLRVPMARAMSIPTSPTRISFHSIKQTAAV
Outline: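 TeloHEAC cells stably expressing human CRF2a (10000 cells/well) were treated with 16-point 1:2 compound dilutions in HBSS/20 mM HEPES with IBMX for 30 min at 37° C. cAMP was read by HTRF (665/620 nm ratio). EC50 was the concentration giving 50% activation, with 100 nM urocortin 2 set as 100%.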

CFR1R receptor = target: T2, CFR1R receptor (Homo sapiens, UniProt P34998); test: Activity at anti-target CFR1R receptor, cAMP assay in CRF1R-overexpression CHO-K1 cells; type: cell-based; settings: 100% = Sauvagine at 100 nM; for EC50: cAMP
T2 construct: host or cells: CHO-K1 (clone 2)
T2 sequence (P34998 24-415): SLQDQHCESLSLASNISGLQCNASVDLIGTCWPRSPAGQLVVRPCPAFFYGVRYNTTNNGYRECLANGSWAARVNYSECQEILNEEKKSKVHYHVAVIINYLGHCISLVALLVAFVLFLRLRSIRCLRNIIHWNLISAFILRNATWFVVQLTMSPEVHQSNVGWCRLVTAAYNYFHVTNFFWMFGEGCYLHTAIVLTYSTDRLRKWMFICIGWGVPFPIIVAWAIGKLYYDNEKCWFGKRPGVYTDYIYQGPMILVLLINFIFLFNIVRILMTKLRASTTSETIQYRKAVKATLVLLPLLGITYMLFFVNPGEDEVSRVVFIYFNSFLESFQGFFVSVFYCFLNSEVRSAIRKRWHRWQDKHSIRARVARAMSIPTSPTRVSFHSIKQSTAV
Outline: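 cAMP readout in CRF1R-overexpressing CHO-K1 cells (clone 2), run as for the TeloHAEC assay at 4000 cells/well final. Cells came from cryopreserved banks. Sauvagine at 100 nM defined 100% activation.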

EC50 (human CRF2a receptor) [nM] | Emax (% I) (CFR1R receptor) | EC50 (CFR1R receptor) [nM] | SMILES
0.11 | 19 | > 250 | CC[C@H](C)[C@H](NC)C(=O)N[C@H](C(=O)N[C@@H](CC(C)C)C(=O)N[C@@H](CO)C(=O)N[C@@H](CC(C)C)C(=O)N[C@@H](CC(=O)O)C(=O)N[C@@H](C(=O)N1CCC[C@H]1C(=O)N[C@H](C(=O)NCC(=O)N[C@@H](CC(C)C)C(=O)N[C@@H](CCCCNC(=O)CC[C@H](NC(=O)CCCCCCCCCCCCCCCCC(=O)O)C(=O)O)C(=O)N[C@@H](CCCCN)C(=O)N[C@H](C(=O)N[C@@H](CC(C)C)C(=O)N[C@@H](CC(C)C)C(=O)N[C@@H](CCC(=O)O)C(=O)N[C@@H](CCC(N)=O)C(=O)N[C@@H](CCC(=O)O)C(=O)N[C@@H](CCCCN)C(=O)N[C@@H](CCC(N)=O)C(=O)N[C@@H](CCCCN)C(=O)N[C@@H](CCCCN)C(=O)N[C@@H](CCC(N)=O)C(=O)N[C@@H](CCCNC(=N)N)C(=O)N[C@@H](CCC(=O)O)C(=O)N[C@@H](CCC(N)=O)C(=O)N[C@@H](C)C(=O)N[C@@H](CCC(=O)O)C(=O)N[C@H](C(=O)N[C@@H](CC(N)=O)C(=O)NC(C)(C)C(=O)N[C@@H](CCC(N)=O)C(=O)N[C@H](C(=O)N[C@@H](CC(C)C)C(=O)N[C@@H](C)C(=O)N[C@@H](CCC(N)=O)C(=O)N[C@H](C(N)=O)C(C)C)[C@@H](C)CC)[C@@H](C)O)[C@@H](C)CC)[C@@H](C)CC)C(C)C)C(C)C [compound 192] (H-[NMeI]VLSLD[dV]PIGLK([γGlu-C18 diacid])KILLEQEKQKKQREQAETN[Aib]QILAQV-NH2)
0.21 | 42 | – | CCCCC(=O)N[C@H](C(=O)N[C@@H](CC(C)C)C(=O)N[C@@H](CO)C(=O)N[C@@H](CC(C)C)C(=O)N[C@@H](CC(=O)O)C(=O)N[C@@H](C(=O)N1CCC[C@H]1C(=O)N[C@H](C(=O)NCC(=O)N[C@@H](CC(C)C)C(=O)N[C@@H](CCCCNC(=O)CC[C@H](NC(=O)CCCCCCCCCCCCCCCCC(=O)O)C(=O)O)C(=O)N[C@@H](CCCCN)C(=O)N[C@H](C(=O)N[C@@H](CC(C)C)C(=O)N[C@@H](CC(C)C)C(=O)N[C@@H](CCC(=O)O)C(=O)N[C@@H](CCC(N)=O)C(=O)N[C@@H](CCC(=O)O)C(=O)N[C@@H](CCCCN)C(=O)N[C@@H](CCC(N)=O)C(=O)N[C@@H](CCCCN)C(=O)N[C@@H](CCCCN)C(=O)N[C@@H](CCC(N)=O)C(=O)N[C@@H](CCCNC(=N)N)C(=O)N[C@@H](CCC(=O)O)C(=O)N[C@@H](CCC(N)=O)C(=O)N[C@@H](C)C(=O)N[C@@H](CCC(=O)O)C(=O)N[C@H](C(=O)N[C@@H](CC(N)=O)C(=O)NC(C)(C)C(=O)N[C@@H](CCC(N)=O)C(=O)N[C@H](C(=O)N[C@@H](CC(C)C)C(=O)N[C@@H](C)C(=O)N[C@@H](CCC(N)=O)C(=O)N[C@H](C(N)=O)C(C)C)[C@@H](C)CC)[C@@H](C)O)[C@@H](C)CC)[C@@H](C)CC)C(C)C)C(C)C [compound 195] (Pentanoyl-VLSLD[dV]PIGLK([γGlu-C18 diacid])KILLEQEKQKKQREQAETN[Aib]QILAQV-NH2)
2.2 | 9 | > 250 | CC[C@H](C)[C@H](NC(C)=O)C(=O)N[C@H](C(=O)N[C@@H](CC(C)C)C(=O)N[C@@H](CO)C(=O)N[C@@H](CC(C)C)C(=O)N[C@@H](CC(=O)O)C(=O)N[C@@H](C(=O)N1CCC[C@H]1C(=O)N[C@H](C(=O)N[C@@H](CCCCN)C(=O)N[C@@H](CC(C)C)C(=O)N[C@@H](CCCCNC(=O)COCCOCCNC(=O)COCCOCCNC(=O)CC[C@H](NC(=O)CCCCCCCCCCCCCCCCC(=O)O)C(=O)O)C(=O)N[C@@H](CCCCN)C(=O)N[C@H](C(=O)N[C@@H](CC(C)C)C(=O)N[C@@H](CC(C)C)C(=O)N[C@@H](CCC(=O)O)C(=O)N[C@@H](CCC(N)=O)C(=O)N[C@@H](CCC(=O)O)C(=O)N[C@@H](CCCCN)C(=O)N[C@@H](CCC(N)=O)C(=O)N[C@@H](CCCCN)C(=O)NC(C)(C)C(=O)N[C@@H](CCC(N)=O)C(=O)N[C@@H](CCCNC(=N)N)C(=O)N[C@@H](CCC(=O)O)C(=O)N[C@@H](CCC(N)=O)C(=O)N[C@@H](C)C(=O)N[C@@H](CCC(=O)O)C(=O)N[C@H](C(=O)N[C@@H](CC(N)=O)C(=O)NC1(C(=O)N[C@@H](CCC(N)=O)C(=O)N[C@H](C(=O)N[C@@H](CC(C)C)C(=O)N[C@@H](C)C(=O)N[C@@H](CCC(N)=O)C(=O)N[C@H](C(N)=O)C(C)C)[C@@H](C)CC)CCNCC1)[C@@H](C)O)[C@@H](C)CC)[C@@H](C)CC)C(C)C)C(C)C [compound 196] (Ac-IVLSLD[dV]PIKLK([AEEA-AEEA-γGlu-C18 diacid])KILLEQEKQK[Aib]QREQAETN[Api]QILAQV-NH2)
1.28 | 5 | > 250 | CC[C@H](C)[C@H](NC(C)=O)C(=O)N[C@H](C(=O)N[C@@H](CC(C)C)C(=O)N[C@@H](CO)C(=O)N[C@@H](CC(C)C)C(=O)N[C@@H](CC(=O)O)C(=O)N[C@@H](C(=O)N1CCC[C@H]1C(=O)N[C@H](C(=O)N[C@@H](CCCCN)C(=O)N[C@@H](CC(C)C)C(=O)N[C@@H](CCCCNC(=O)COCCOCCNC(=O)COCCOCCNC(=O)CC[C@H](NC(=O)CCCCCCCCCCCCCCCCC(=O)O)C(=O)O)C(=O)N[C@@H](CCCCN)C(=O)N[C@H](C(=O)N[C@@H](CC(C)C)C(=O)N[C@@H](CC(C)C)C(=O)N[C@@H](CCC(=O)O)C(=O)N[C@@H](CCC(N)=O)C(=O)N[C@@H](CCC(=O)O)C(=O)N[C@@H](CCCCN)C(=O)N[C@@H](CCC(N)=O)C(=O)N[C@@H](CCCCN)C(=O)NC(C)(C)C(=O)N[C@@H](CCC(N)=O)C(=O)N[C@@H](CCCNC(=N)N)C(=O)N[C@@H](CCC(=O)O)C(=O)N[C@@H](CCC(N)=O)C(=O)N[C@@H](C)C(=O)N[C@@H](CCC(=O)O)C(=O)N[C@H](C(=O)N[C@@H](CC(N)=O)C(=O)NC(C)(C)C(=O)N[C@@H](CCC(N)=O)C(=O)N[C@H](C(=O)N[C@@H](CC(C)C)C(=O)N[C@@H](C)C(=O)N[C@@H](CCC(N)=O)C(=O)N[C@H](C(N)=O)C(C)C)[C@@H](C)CC)[C@@H](C)O)[C@@H](C)CC)[C@@H](C)CC)C(C)C)C(C)C [compound 197] (Ac-IVLSLD[dV]PIKLK([AEEA-AEEA-γGlu-C18 diacid])KILLEQEKQK[Aib]QREQAETN[Aib]QILAQV-NH2)
0.71 | 2 | > 250 | CC[C@H](C)[C@H](NC)C(=O)N[C@H](C(=O)N[C@@H](CC(C)C)C(=O)N[C@@H](CO)C(=O)N[C@@H](CC(C)C)C(=O)N[C@@H](CC(=O)O)C(=O)N[C@@H](C(=O)N1CCC[C@H]1C(=O)N[C@H](C(=O)N[C@@H](CCCCN)C(=O)N[C@@H](CC(C)C)C(=O)N[C@@H](CCCCNC(=O)COCCOCCNC(=O)COCCOCCNC(=O)CC[C@H](NC(=O)CCCCCCCCCCCCCCCCC(=O)O)C(=O)O)C(=O)N[C@@H](CCCCN)C(=O)N[C@H](C(=O)N[C@@H](CC(C)C)C(=O)N[C@@H](CC(C)C)C(=O)N[C@@H](CCC(=O)O)C(=O)N[C@@H](CCC(N)=O)C(=O)N[C@@H](CCC(=O)O)C(=O)N[C@@H](CCCCN)C(=O)N[C@@H](CCC(N)=O)C(=O)N[C@@H](CCCCN)C(=O)NC(C)(C)C(=O)N[C@@H](CCC(N)=O)C(=O)N[C@@H](CCCNC(=N)N)C(=O)N[C@@H](CCC(=O)O)C(=O)N[C@@H](CCC(N)=O)C(=O)N[C@@H](C)C(=O)N[C@@H](CCC(=O)O)C(=O)N[C@H](C(=O)N[C@@H](CC(N)=O)C(=O)NC(C)(C)C(=O)N[C@@H](CCC(N)=O)C(=O)N[C@H](C(=O)N[C@@H](CC(C)C)C(=O)N[C@@H](C)C(=O)N[C@@H](CCC(N)=O)C(=O)N[C@H](C(N)=O)C(C)C)[C@@H](C)CC)[C@@H](C)O)[C@@H](C)CC)[C@@H](C)CC)C(C)C)C(C)C [compound 200] (H-[NMeI]VLSLD[dV]PIKLK([AEEA-AEEA-γGlu-C18 diacid])KILLEQEKQK[Aib]QREQAETN[Aib]QILAQV-NH2)
